Assays:
Assay in all cases: relative viability (nuclei count vs DMSO), 5 days (fraction); higher = more cells survive
Sulindac + Foretinib = compound: CC1=C(CC(=O)O)c2cc(F)ccc2/C1=C\c1ccc([S+](C)[O-])cc1 [Sulindac] + COc1cc2c(Oc3ccc(NC(=O)C4(C(=O)Nc5ccc(F)cc5)CC4)cc3F)ccnc2cc1OCCCN1CCOCC1 [Foretinib] (partner 0.25 µM)
In short: (§1)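 Values are medians from duplicate plates. Each reflects relative viability, defined as the nuclei count of treated wells over that of vehicle wells. Lung cancer cell lines in 1536-well plates were pin-tool dosed one day after seeding with one drug alone or with a fixed anchor-drug dose plus five library-drug doses (not always all listed) in √10 steps, then fixed, stained and imaged at 4× after 5 days.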

Sulindac + Linsitinib = compound: CC1=C(CC(=O)O)c2cc(F)ccc2/C1=C\c1ccc([S+](C)[O-])cc1 [Sulindac] + C[C@]1(O)C[C@@H](c2nc(-c3ccc4ccc(-c5ccccc5)nc4c3)c3c(N)nccn32)C1 [Linsitinib] (partner 1 µM)
In short: as §1

[1] = compound: O=c1[nH]cc(F)c(=O)[nH]1 [5-Fluorouracil] + C[C@]1(O)C[C@@H](c2nc(-c3ccc4ccc(-c5ccccc5)nc4c3)c3c(N)nccn32)C1 [Linsitinib] (partner 1 µM)
In short: as §1

[2] = compound: O=c1[nH]cc(F)c(=O)[nH]1 [5-Fluorouracil] + Cc1cc(Nc2cc(N3CCN(C)CC3)nc(Sc3ccc(NC(=O)C4CC4)cc3)n2)n[nH]1 [Tozasertib] (partner 0.1 µM)
In short: as §1

Row | Cell Line | relative viability (Sulindac + Foretinib; first compound 0.08 µM) | relative viability (Sulindac + Foretinib; first compound 0.253 µM) | relative viability (Sulindac + Foretinib; first compound 0.8 µM) | relative viability (Sulindac + Foretinib; first compound 2.53 µM) | relative viability (Sulindac + Foretinib; first compound 8 µM) | relative viability (Sulindac + Linsitinib; first compound 0.08 µM) | relative viability (Sulindac + Linsitinib; first compound 0.253 µM) | relative viability (Sulindac + Linsitinib; first compound 0.8 µM) | relative viability (Sulindac + Linsitinib; first compound 2.53 µM) | relative viability (Sulindac + Linsitinib; first compound 8 µM) | relative viability ([1]; first compound 0.02 µM) | relative viability ([1]; first compound 0.2 µM) | relative viability ([1]; first compound 0.6325 µM) | relative viability ([1]; first compound 2 µM) | relative viability ([2]; first compound 0.2 µM) | relative viability ([2]; first compound 0.6325 µM) | relative viability ([2]; first compound 2 µM) | relative viability ([2]; first compound 0.02 µM)
1 | HCC-827 | 1.03 | 1.05 | 1.1 | 1.01 | 1.09 | 0.932 | 0.939 | 0.988 | 0.937 | 0.967 | 0.909 | 0.95 | 0.57 | 0.405 | 0.433 | 0.391 | 0.29 | –
2 | HOP-62 | 1.18 | 1.1 | – | 1.23 | 1.25 | 0.858 | 0.937 | 1.14 | 1.03 | 1.16 | 1.11 | 1.03 | 0.86 | 0.765 | 0.364 | 0.389 | 0.319 | 0.368
3 | IA-LM | 1.23 | 1.19 | – | 1.2 | 1.3 | 0.527 | 0.681 | – | 0.826 | 0.423 | 0.597 | 0.485 | 0.175 | 0.213 | – | – | – | –
4 | LC-2-ad | 0.855 | 1.01 | 0.877 | 0.872 | 1.02 | 0.938 | 0.795 | 0.816 | 0.881 | 0.933 | 0.868 | 0.798 | 0.463 | 0.299 | 0.382 | 0.365 | 0.293 | 0.443
5 | LCLC-97TM1 | 0.939 | 0.992 | 0.804 | 0.803 | 0.962 | 0.187 | 0.167 | 0.157 | – | 0.209 | 0.175 | 0.193 | 0.153 | 0.144 | 0.271 | 0.181 | 0.199 | 0.223
6 | LCLC-103H | 0.817 | 0.822 | 0.681 | 0.734 | 0.916 | 1.18 | 1.22 | 0.94 | 1.04 | 1.2 | 1.16 | 1.04 | 0.955 | 0.645 | 0.511 | 0.305 | 0.212 | 0.536
7 | LK-2 | 1.73 | 1.45 | – | – | 1.21 | 0.464 | 0.376 | 0.532 | 0.417 | 0.577 | 0.767 | 0.5 | 0.584 | 0.334 | 0.176 | 0.16 | 0.189 | 0.169
8 | LOU-NH91 | 0.859 | 0.964 | 0.876 | 0.935 | 1.11 | 0.877 | 0.916 | 0.858 | 0.933 | 1.09 | 0.921 | 0.889 | 0.646 | 0.415 | 0.705 | 0.564 | 0.243 | 0.701
9 | LU99A | 0.87 | 0.808 | 0.934 | 0.791 | 0.926 | 0.578 | 0.524 | 0.493 | 0.499 | 0.659 | 0.549 | 0.607 | 0.426 | 0.422 | 0.243 | 0.269 | 0.207 | 0.325
10 | LXF-289 | 0.98 | 1.05 | 0.98 | 1.02 | 1.03 | 1.02 | 0.984 | 0.931 | 1.05 | 0.993 | 1 | 0.67 | 0.389 | 0.308 | 0.164 | 0.134 | 0.138 | 0.189
